The experiment addresses β-catenin/BCL9 PPI (Homo sapiens (Human), UniProt P35222). The experiment can be described thus: AlphaScreen competitive inhibition assay of β-catenin/BCL9 PPI. The format is binding. To be noted: mean ± standard deviation (n = 3); for Ki: derived from IC50, read-out: Ki ± SD. Here is the method: AlphaScreen Assays of β-Catenin and BCL9 Interaction. Experiments were performed in white opaque 384-well plates from PerkinElmer (Waltham, MA), and the samples were read on a Biotek Synergy 2 plate reader (Winooski, VT) with excitation at 680 nm and emission at 570 nm. The standard AlphaScreen protocol was used with a sensitivity setting of 200. All dilutions were made in 1× assay buffer containing 25 mM Hepes (pH 7.4), 100 mM NaCl, 0.01% Triton X-100 and 0.1% BSA to minimize nonspecific interactions. For the competitive inhibition assays of β-catenin/BCL9 PPI, the negative control (equivalent to 0% inhibition) refers to 5.0 nM biotinylated BCL9, 50 nM His6-tagged β-catenin, and 10 μg/mL donor and acceptor beads in a final volume of 25 μL assay buffer, but no tested inhibitor present. The positive control (equivalent to 100% inhibition) refers to 5.0 nM biotinylated BCL9 and 10 μg/mL donor and acceptor beads in a final volume of 25 μL assay buffer.
For the β-catenin/BCL9 assay, 5 nM biotinylated BCL9 and 50 nM His6-tagged β-catenin were incubated in assay buffer for 30 min. Different concentrations of the tested inhibitor were added and incubated in 20 μL assay buffer for another 1 h. All of the assay plates were covered and gently mixed on an orbital shaker. The donor and acceptor beads were then added to the plates to a final concentration of 10 μg/mL in 25 μL assay buffer. The mixture was incubated for 1 h before detection. The IC50 value was determined by nonlinear least-square analysis of GraphPad Prism 8.0. The Ki values were derived from the IC50 values using a method reported by Wang and coworkers.^65 The equation used is Ki=[I]50/([L]50/Kd+[P]0/Kd+1) (Where [I]50 denotes the concentration of the free inhibitor at 50% inhibition, [L]50 is the concentration of the free labeled ligand at 50% inhibition, [P]0 is the concentration of the free protein at 0% inhibition, and Kd is the dissociation constant of the protein-ligand complex). All of the experiments were performed in triplicate and carried out in the presence of 1% DMSO for small-molecule inhibitors. Each compound was assayed at least by three independent experiments. The results were expressed as mean±standard deviation.
On the technique in general: Bead proximity is the source of the signal in Alpha formats.

Each structure is given as a SMILES string. Where a name gives a salt, the structure may show the parent alone.

A word on the Ki: it is the dissociation constant of the complex between target and ligand, obtained from inhibition or displacement. Broadly, the IC50 is the concentration that inhibits the measured activity by half.

Chain of β-catenin/BCL9 PPI (P35222 whole entry): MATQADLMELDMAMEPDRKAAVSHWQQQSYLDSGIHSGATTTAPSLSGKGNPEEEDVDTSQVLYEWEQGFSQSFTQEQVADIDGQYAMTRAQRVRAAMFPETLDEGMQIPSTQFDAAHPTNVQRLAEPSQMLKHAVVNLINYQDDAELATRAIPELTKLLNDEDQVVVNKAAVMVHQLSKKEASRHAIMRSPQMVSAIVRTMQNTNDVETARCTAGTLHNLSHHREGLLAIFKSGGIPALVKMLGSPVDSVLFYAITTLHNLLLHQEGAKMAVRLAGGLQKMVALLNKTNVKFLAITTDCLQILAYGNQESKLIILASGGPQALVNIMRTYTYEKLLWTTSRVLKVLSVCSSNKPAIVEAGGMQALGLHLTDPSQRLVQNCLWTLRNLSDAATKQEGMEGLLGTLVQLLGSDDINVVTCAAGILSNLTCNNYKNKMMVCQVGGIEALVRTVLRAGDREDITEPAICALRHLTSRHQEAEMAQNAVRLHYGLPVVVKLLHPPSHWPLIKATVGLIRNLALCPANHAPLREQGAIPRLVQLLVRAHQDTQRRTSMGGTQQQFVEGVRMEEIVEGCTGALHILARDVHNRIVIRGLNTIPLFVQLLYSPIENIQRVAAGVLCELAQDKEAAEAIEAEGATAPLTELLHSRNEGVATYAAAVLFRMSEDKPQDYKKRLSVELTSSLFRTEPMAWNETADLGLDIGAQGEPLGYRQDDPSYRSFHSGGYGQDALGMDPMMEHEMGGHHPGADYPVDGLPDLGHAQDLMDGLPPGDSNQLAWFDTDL

As to `O=C(c1ccc(O[C@H]2CCNC2)c(C2CCC(C(F)(F)F)CC2)c1)N1CCC(Oc2cc(F)cc(N3CCNCC3)c2)CC1` (stereo in doubt) [Compound 18, cis- and trans-(S)-(4-(3-fluoro-5-(piperazin-1-yl)phenoxy)piperidin-1-yl)(4-(pyrrolidin-3-yloxy)-3-(4-(trifluoromethyl)cyclohexyl)phenyl)methanone dihydrochloride], the Ki is at most 20 µM and the IC50 was at most 20 µM.

With `CC(C)(C)C1CCC(c2cc(C(=O)N3CCC(Oc4cc(F)cc(N5CCNCC5)c4)CC3)ccc2O[C@H]2CCNC2)CC1` (stereo in doubt) [Compound 19, cis- and trans-(S)-(3-(4-(tert-butyl)cyclohexyl)-4-(pyrrolidin-3-yloxy)phenyl)(4-(3-fluoro-5-(piperazin-1-yl)phenoxy)piperidin-1-yl)methanone dihydrochloride], the Ki was at most 5 µM and the concentration for half-maximal inhibition (IC50) was at most 5 µM.

For the molecule `CC(C)(C)C1CCC(c2cc(C(=O)N3CCC(Oc4cc(Cl)cc(N5CCNCC5)c4)CC3)ccc2O[C@H]2CCNC2)CC1` (stereo in doubt) [Compound 30, cis- and trans-(S)-(3-(4-(tert-butyl)cyclohexyl)-4-(pyrrolidin-3-yloxy)phenyl)(4-(3-chloro-5-(piperazin-1-yl)phenoxy)piperidin-1-yl)methanone dihydrochloride], the Ki is at most 5 µM and the IC50 is at most 5 µM.

As for `CC(C)(C)C1CCC(c2cc(C(=O)N3CCC(Oc4cc(N5CCNCC5)cc(C(F)(F)F)c4)CC3)ccc2O[C@H]2CCNC2)CC1` (stereo in doubt) [Compound 31, cis- and trans-(S)-(3-(4-(tert-butyl)cyclohexyl)-4-(pyrrolidin-3-yloxy)phenyl)(4-(3-(piperazin-1-yl)-5-(trifluoromethyl)phenoxy)piperidin-1-yl)methanone dihydrochloride], the Ki was under 5 µM and the IC50 was at most 5 µM.

Turning to `CC(C)(C)C1CCC(c2cc(C(=O)N3CCC(Oc4cc(C#N)cc(N5CCNCC5)c4)CC3)ccc2O[C@H]2CCNC2)CC1` (stereo in doubt) [Compound 32, cis- and trans-(S)-3-((1-(3-(4-(tert-butyl)cyclohexyl)-4-(pyrrolidin-3-yloxy)benzoyl)piperidin-4-yl)oxy)-5-(piperazin-1-yl)benzonitrile dihydrochloride], the Ki was at most 10 µM and the IC50 is at most 10 µM.

Take `CC(C)(C)C1CCC(c2cc(C(=O)N3CCC(Oc4ccc(F)c(N5CCNCC5)c4)CC3)ccc2O[C@H]2CCNC2)CC1` (stereo in doubt) [Compound 33, cis- and trans-(S)-(3-(4-(tert-butyl)cyclohexyl)-4-(pyrrolidin-3-yloxy)phenyl)(4-(4-fluoro-3-(piperazin-1-yl)phenoxy)piperidin-1-yl)methanone dihydrochloride]: the inhibition constant Ki was at most 10 µM and the IC50 was at most 10 µM.

`CC(C)(C)C1CCC(c2cc(C(=O)N3CCC(Oc4cc(N5CCNCC5)ccc4F)CC3)ccc2O[C@H]2CCNC2)CC1` (stereo in doubt) [Compound 34, cis- and trans-(S)-(3-(4-(tert-butyl)cyclohexyl)-4-(pyrrolidin-3-yloxy)phenyl)(4-(2-fluoro-5-(piperazin-1-yl)phenoxy)piperidin-1-yl)methanone dihydrochloride]: the Ki was at most 10 µM and the IC50 was at most 10 µM.

For the molecule `CC(C)(C)C1CCC(c2cc(C(=O)N3CCC(Oc4cc(N5CCNCC5)cc(F)c4F)CC3)ccc2O[C@H]2CCNC2)CC1` (stereo in doubt) [Compound 35, cis- and trans-(S)-(3-(4-(tert-butyl)cyclohexyl)-4-(pyrrolidin-3-yloxy)phenyl)(4-(2,3-difluoro-5-(piperazin-1-yl)phenoxy)piperidin-1-yl)methanone dihydrochloride], the Ki is at most 5 µM and the IC50 is at most 5 µM.

As for `CC(C)(C)C1CCC(c2cc(C(=O)N3CCC(Oc4cc(N5CCNCC5)ccc4Cl)CC3)ccc2O[C@H]2CCNC2)CC1` (stereo in doubt) [Compound 36, cis- and trans-(S)-(3-(4-(tert-butyl)cyclohexyl)-4-(pyrrolidin-3-yloxy)phenyl)(4-(2-chloro-5-(piperazin-1-yl)phenoxy)piperidin-1-yl)methanone dihydrochloride], the Ki was at most 5 µM and the IC50 was at most 5 µM.

Turning to `CC(C)(C)C1CCC(c2cc(C(=O)N3CCC(Oc4cc(N5CCNCC5)ccc4C#N)CC3)ccc2O[C@H]2CCNC2)CC1` (stereo in doubt) [Compound 37, cis- and trans-(S)-2-((1-(3-(4-(tert-butyl)cyclohexyl)-4-(pyrrolidin-3-yloxy)benzoyl)piperidin-4-yl)oxy)-4-(piperazin-1-yl)benzonitrile dihydrochloride], the Ki is at most 2 µM and the half-maximal inhibitory concentration (IC50) was at most 2 µM.

For the molecule `CC(C)(C)C1CCC(c2cc(C(=O)N3CCC(Oc4cccc(N5CCNCC5)c4)CC3)ccc2O[C@H]2CCNC2)CC1` (stereo in doubt) [Compound 38, cis and trans-(S)-(3-(4-(tert-butyl)cyclohexyl)-4-(pyrrolidin-3-yloxy)phenyl)(4-(3-(piperazin-1-yl)phenoxy)piperidin-1-yl)methanone dihydrochloride], the Ki is at most 20 µM and the 50% inhibitory concentration (IC50) is at most 20 µM.

Turning to `COC(=O)c1ccc(N2CCNCC2)cc1OC1CCN(C(=O)c2ccc(O[C@H]3CCNC3)c(C3CCC(C(C)(C)C)CC3)c2)CC1` (stereo in doubt) [Compound 39, cis- and trans-methyl (S)-2-((1-(3-(4-(tert-butyl)cyclohexyl)-4-(pyrrolidin-3-yloxy)benzoyl)piperidin-4-yl)oxy)-4-(piperazin-1-yl)benzoate dihydrochloride], the Ki was 14 ± 0.87 µM and the IC50 was 17 ± 1.1 µM.

For `CC(C)(C)C1CCC(c2cc(C(=O)N3CCC(Oc4cc(N5CCNCC5)ccc4C(=O)O)CC3)ccc2O[C@H]2CCNC2)CC1` (stereo in doubt) [Compound 40, cis- and trans-(S)-2-((1-(3-(4-(tert-butyl)cyclohexyl)-4-(pyrrolidin-3-yloxy)benzoyl)piperidin-4-yl)oxy)-4-(piperazin-1-yl)benzoic acid dihydrochloride], the inhibitory constant (Ki) was about 84 µM and the IC50 was about 100 µM.

As to `CC(C)(C)C1CCC(c2cc(C(=O)N3CCC(Oc4cc(N5CCNCC5)ccc4C(N)=O)CC3)ccc2O[C@H]2CCNC2)CC1` (stereo in doubt) [Compound 41, cis- and trans-(S)-2-((1-(3-(4-(tert-butyl)cyclohexyl)-4-(pyrrolidin-3-yloxy)benzoyl)piperidin-4-yl)oxy)-4-(piperazin-1-yl)benzamide dihydrochloride], the inhibition constant Ki is at most 20 µM and the IC50 is at most 20 µM.

On to `CNC(=O)c1ccc(N2CCNCC2)cc1OC1CCN(C(=O)c2ccc(O[C@H]3CCNC3)c(C3CCC(C(C)(C)C)CC3)c2)CC1` (stereo in doubt) [Compound 42, cis- and trans-(S)-2-((1-(3-(4-(tert-butyl)cyclohexyl)-4-(pyrrolidin-3-yloxy)benzoyl)piperidin-4-yl)oxy)-N-methyl-4-(piperazin-1-yl)benzamide dihydrochloride], for which the inhibition constant Ki is at most 50 µM and the IC50 is at most 50 µM.

For `CN(C)C(=O)c1ccc(N2CCNCC2)cc1OC1CCN(C(=O)c2ccc(O[C@H]3CCNC3)c(C3CCC(C(C)(C)C)CC3)c2)CC1` (stereo in doubt) [Compound 43, cis- and trans-(S)-2-((1-(3-(4-(tert-butyl)cyclohexyl)-4-(pyrrolidin-3-yloxy)benzoyl)piperidin-4-yl)oxy)-N,N-dimethyl-4-(piperazin-1-yl)benzamide dihydrochloride], the inhibition constant (Ki) is about 81 µM and the IC50 is about 100 µM.

`O=C(c1ccc(O[C@H]2CCNC2)c(C2CCCCC2)c1)N1CCC(Oc2cc(F)cc(N3CCNCC3)c2)CC1` [Compound 1, (S)-(3-cyclohexyl-4-(pyrrolidin-3-yloxy)phenyl)(4-(3-fluoro-5-(piperazin-1-yl)phenoxy)piperidin-1-yl)methanone dihydrochloride]: the Ki is at most 50 µM and the IC50 was at most 60 µM.

On to `O=C(c1ccc(O[C@H]2CCNC2)c(C2CCCCC2)c1)N1CCC(Oc2cc(F)cc(N3CC4(CCNCC4)C3)c2)CC1` [Compound 2, (S)-(3-cyclohexyl-4-(pyrrolidin-3-yloxy)phenyl)(4-(3-fluoro-5-(2,7-diazaspiro[3.5]nonan-2-yl)phenoxy)piperidin-1-yl)methanone ditrifluoroacetic acid], for which the Ki was over 84 µM and the IC50 is over 100 µM.

The values above are taken from patent US20240208940A1, “SMALL-MOLECULE INHIBITORS FOR BETA-CATENIN/BCELL LYMPHOMA 9 PROTEIN-PROTEIN INTERACTION” (H. LEE MOFFITT CANCER CENTER AND RESEARCH INSTITUTE, INC., priority 2021, published 2024).
